Assay results published in patent publication US20220145295A1, “ENZYMATIC RNA SYNTHESIS” (President and Fellows of Harvard College, priority 2018, published 2022).
Blank lines part the entries; values can stand above or below the molecule they belong to.

What was measured:
Format in all cases: biochemical
[1] = molecular target: T1, S. cerevisiae poly(A) polymerase (Saccharomyces cerevisiae, UniProt P29468); assay: Modified nucleotide incorporation by S. cerevisiae poly(A) polymerase, denaturing gel electrophoresis; details: 37° C., 60 minutes; for incorporation by S. cerevisiae poly(A) polymerase: 2.5 mM modified nucleotide, 0.5 mM Mn^2+, 900 units enzyme
T1 construct: purchased Thermo 74225Z25KU
T1 sequence (P29468 whole entry): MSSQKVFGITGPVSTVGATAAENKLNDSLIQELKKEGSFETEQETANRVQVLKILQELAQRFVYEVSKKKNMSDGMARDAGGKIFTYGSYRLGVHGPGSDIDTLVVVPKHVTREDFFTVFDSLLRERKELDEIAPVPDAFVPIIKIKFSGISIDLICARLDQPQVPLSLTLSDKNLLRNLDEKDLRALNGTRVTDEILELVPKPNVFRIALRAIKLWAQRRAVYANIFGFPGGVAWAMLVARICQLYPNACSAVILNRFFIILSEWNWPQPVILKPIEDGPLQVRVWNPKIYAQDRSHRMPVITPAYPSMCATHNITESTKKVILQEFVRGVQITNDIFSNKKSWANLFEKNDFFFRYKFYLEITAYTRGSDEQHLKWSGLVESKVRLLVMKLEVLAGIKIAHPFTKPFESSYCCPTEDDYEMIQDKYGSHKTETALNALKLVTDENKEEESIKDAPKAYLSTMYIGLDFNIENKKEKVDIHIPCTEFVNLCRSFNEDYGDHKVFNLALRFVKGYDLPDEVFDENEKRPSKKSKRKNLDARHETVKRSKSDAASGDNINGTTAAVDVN
Experimental: FIGS. 4A and 4B. […] All 2′-modified ribonucleotides were at a final concentration of 2.5 mM and incubated at 37° C. for 60 minutes. The control reaction consisted of all reaction components except nucleotide. […] The negative reaction consisted of all reaction components except nucleotide.
The efficiency of S. cerevisiae poly(A) polymerase (Thermo 74225Z25KU) for incorporating of several 2′-modified was evaluated. The modified nucleotides evaluated included the following: 2′-F-rATP (Trilink N-1007), 2′-Azido-rATP (Trilink N-1045), 2′-Amino-rATP (Trilink N-1046), and 2′-O-Methyl rATP (Trilink N-1015). Extension reactions were supplemented with the appropriate buffers, which included 0.5 mM Mn^2+, 200 pmol of the initiator RNA oligonucleotide, 2.5 mM modified nucleotide, and 900 units of enzyme. Reactions were incubated at 37° C. for 60 minutes before being analyzed with denaturing gel electrophoresis. According to the gel (FIG. 4A), under these reactions conditions S. cerevisiae poly(A) polymerase incorporates all 2′-modified nucleotides (2′-Amino-, 2′-O-Methyl-, 2′-F-, and 2′-Azido-rATP). […] Under the same reaction conditions, the reversible terminator nucleoside triphosphate, 2′-O-allyl-rATP, was tested for controlled incorporation by S. cerevisiae poly(A) polymerase.

Human polymerase μ R387K = molecular target: T2, Human polymerase μ R387K (Homo sapiens, UniProt Q9NP87, R387K); assay: dATP / rATP incorporation by polymerase μ R387K, denaturing gel electrophoresis; details: 0.25 mM Mn^2+ and Mg^2+; for incorporation by polymerase μ R387K: poly dT-15-mer initiator
T2 construct: His-tag (pET-28c vector); made in house; host or cells: E. coli (T7 Express)
T2 sequence (Q9NP87 whole entry R387K): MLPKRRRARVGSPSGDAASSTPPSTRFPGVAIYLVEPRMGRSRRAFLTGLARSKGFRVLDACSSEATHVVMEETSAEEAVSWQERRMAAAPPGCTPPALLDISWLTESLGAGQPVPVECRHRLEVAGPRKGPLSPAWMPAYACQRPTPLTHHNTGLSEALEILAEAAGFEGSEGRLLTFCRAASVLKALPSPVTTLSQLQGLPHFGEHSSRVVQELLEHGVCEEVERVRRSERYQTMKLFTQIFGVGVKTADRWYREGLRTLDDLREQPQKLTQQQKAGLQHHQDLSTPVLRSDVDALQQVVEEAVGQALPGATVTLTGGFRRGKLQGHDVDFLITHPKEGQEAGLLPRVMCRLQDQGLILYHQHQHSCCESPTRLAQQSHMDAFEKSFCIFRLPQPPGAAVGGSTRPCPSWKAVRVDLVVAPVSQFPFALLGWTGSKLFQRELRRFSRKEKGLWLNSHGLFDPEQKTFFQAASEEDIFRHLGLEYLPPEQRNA
Experimental: FIGS. 3A to 3C. […] Denaturing gel electrophoresis analysis of dATP incorporation (FIG. 3B) and rATP incorporation (FIG. 3C) at nucleotide concentrations of 200-50 μM and 5.0-0.62 mM for dATP and rATP, respectively. These reactions were supplemented with 0.25 mM Mn^2+ and Mg^2+. The control reaction consisted of all reaction components except nucleotide. For all reactions, the initiator oligonucleotide was a HPLC-purified poly dT-15-mer.
Human polymerase μ R387K was expressed and purified as described in the materials and methods. Because it was unknown under which reaction conditions polymerase μ R387K functioned optimally, several reaction parameters were initially evaluated. […] Thus, polymerase p R387K, a confirmed DNA/RNA-directed polymerase, is useful for controlled enzymatic RNA synthesis.

[2] = molecular target: T3, S. pombe Cid1 poly(U) polymerase (Schizosaccharomyces pombe, UniProt O13833); assay: Uncontrolled extension with natural and modified nucleotides by S. pombe Cid1 poly(U) polymerase (gel, RNA kinetic assay); details: for incorporation of natural ribonucleotides by poly(U) polymerase: 1.0 mM nucleotide, 5′-Cy5-poly rU-15-mer, 37° C., 30 minutes, gel and RNA kinetic assay; for effect of inorganic pyrophosphatase supplementation on RNA synthesis by poly(U) polymerase: 1 mM ribonucleotide, 0.1 units Yeast Inorganic Pyrophosphatase
T3 construct: purchased NEB M0337
T3 sequence (O13833 1-405): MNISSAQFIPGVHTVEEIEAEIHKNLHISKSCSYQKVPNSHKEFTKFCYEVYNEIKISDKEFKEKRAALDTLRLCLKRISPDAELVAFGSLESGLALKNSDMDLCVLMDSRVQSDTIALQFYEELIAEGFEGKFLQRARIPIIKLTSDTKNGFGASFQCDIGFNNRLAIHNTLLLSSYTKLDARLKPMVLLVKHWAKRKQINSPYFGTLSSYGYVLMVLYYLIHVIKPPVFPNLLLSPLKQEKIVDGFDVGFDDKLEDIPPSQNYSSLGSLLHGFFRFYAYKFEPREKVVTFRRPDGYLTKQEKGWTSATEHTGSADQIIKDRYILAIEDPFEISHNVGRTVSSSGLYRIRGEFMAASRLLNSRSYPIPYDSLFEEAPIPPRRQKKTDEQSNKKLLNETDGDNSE

[3] = molecular target: T4, S. pombe poly(U) polymerase (Schizosaccharomyces pombe, UniProt O13833); assay: RNA synthesis by S. pombe poly(U) polymerase with competitive inhibitor (non-hydrolyzable) nucleotide; details: with UTP, 30 minutes at 37° C.
T4 sequence (O13833 1-405): T3 sequence (O13833 1-405)

[4] = molecular target: T5, N-terminus His^6-tagged S. pombe poly(U) polymerase (Schizosaccharomyces pombe, UniProt O13833); assay: Activity of expressed N-terminus His6-tagged S. pombe poly(U) polymerase with 2′-O-allyl-ATP; details: 1 mM nucleotide, approximately 100 pmol of initiator oligonucleotide, 10 μL, 30 seconds at 37° C.
T5 construct: made in house; host or cells: E. coli (T7 Express)
T5 sequence (O13833 1-405): T3 sequence (O13833 1-405)
Experimental: FIGS. 13A and 13B. […] The expected molecular weight of the expressed N-terminus His^6-tagged S. pombe poly(U) polymerase is approximately 45 kDa. […] Reactions were supplemented with increasing amounts of initiator oligonucleotide (from 20 pmol to 1000 pmol) to determine the relative conversion rates as a function of initiator oligonucleotide material as performed by concentrated N-terminus His^6-tagged S. pombe poly(U) polymerase. All reaction volumes were 10 μL, the initiator oligonucleotide was a poly-rU-15-mer labeled with a 5′-Cy5 fluorophore. Reactions were incubated at 37° C. for 30 seconds. The control reaction contained all reaction components (initiator oligonucleotide was 20 pmol) with the exception of reversible terminator nucleotide.
The primary sequence for S. pombe poly(U) polymerase (UniProtKB—O13833) was modified by adding the amino acids “[…]” to the N-terminus of the enzyme. These amino acids encode for an N-terminus His^6-tag with the appropriate linkers. Using the protocol outlined in the material and methods section, N-terminus His^6-tagged S. pombe poly(U) polymerase was expressed, purified, and concentrated to a small volume. […] Using the N-terminus His^6-tagged S. pombe poly(U) polymerase, it was determined that approximately 100 pmol of initiator oligonucleotide can be converted to the (+1) product with a conversion rate of >99% (FIG. 13B). […]

[5] = molecular target: T4, S. pombe poly(U) polymerase; assay: Controlled (n+1) extension with reversible terminator nucleotides by S. pombe poly(U) polymerase; details: 37° C.

incorporation of natural ribonucleotides by poly(U) polymerase [2]: has activity
effect of inorganic pyrophosphatase supplementation on RNA synthesis by poly(U) polymerase ([2]; 30 minutes at 37° C.): minimally affected
Compound: Nc1nc2c(ncn2[C@@H]2O[C@H](COP(=O)(O)OP(=O)(O)OP(=O)(O)O)[C@@H](O)[C@H]2O)c(=O)[nH]1 [rGTP]

concentrations having little effect on controlling the RNA synthesis reaction [3]: below 0.8 mM
Compound: O=c1ccn([C@@H]2O[C@H](COP(=O)(O)NP(=O)(O)OP(=O)(O)O)[C@@H](O)[C@H]2O)c(=O)[nH]1 [Uridine-5′-[(α,β)-imido]triphosphate]
effect of higher concentrations of non-hydrolyzable ribonucleotide on rUTP incorporation [3]: significantly limited the total number of hydrolyzable rUTP incorporations

effect of inorganic pyrophosphatase supplementation on RNA synthesis by poly(U) polymerase ([2]; 30 minutes at 37° C.): greatest enhancement
Compound: O=c1ccn([C@@H]2O[C@H](COP(=O)(O)OP(=O)(O)OP(=O)(O)O)[C@@H](O)[C@H]2O)c(=O)[nH]1 [rUTP]

length of RNA oligonucleotides produced ([2]; 2 mM, 1 mM, or 0.5 mM nucleotide, 0.1 units PPi-ase, 30 minutes at 37° C.): 30-45 nt
Compound: O=c1[nH]cc([C@@H]2O[C@H](COP(=O)(O)OP(=O)(O)OP(=O)(O)O)[C@@H](O)[C@H]2O)c(=O)[nH]1 [Pseudouridine, pseudouridine-5′-triphosphate]

incorporation of natural ribonucleotides by poly(U) polymerase [2]: has activity
effect of inorganic pyrophosphatase supplementation on RNA synthesis by poly(U) polymerase ([2]; 30 minutes at 37° C.): minimally affected
Compound: Nc1ccn([C@@H]2O[C@H](COP(=O)(O)OP(=O)(O)OP(=O)(O)O)[C@@H](O)[C@H]2O)c(=O)n1 [rCTP]

incorporation by S. cerevisiae poly(A) polymerase [1]: incorporates
Compound: Nc1ncnc2c1ncn2[C@@H]1O[C@H](COP(=O)(O)OP(=O)(O)OP(=O)(O)O)[C@@H](O)[C@H]1N [2′-Amino-rATP, 2′-amino-2′-deoxyadenosine-5′-triphosphate]

The next lines start with the molecule.

Compound: CO[C@@H]1[C@H](O)[C@@H](COP(=O)(O)OP(=O)(O)OP(=O)(O)O)O[C@H]1n1cnc2c(N)ncnc21 [2′-O-Methyl rATP, 2′-O-methyladenosine-5′-triphosphate]
incorporation by S. cerevisiae poly(A) polymerase [1]: incorporates

Compound: Nc1ncnc2c1ncn2[C@H]1C[C@H](O)[C@@H](COP(=O)(O)OP(=O)(O)OP(=O)(O)O)O1 [dATP]
incorporation by polymerase μ R387K (Human polymerase μ R387K): can incorporate

Compound: C=CCO[C@@H]1[C@H](O)[C@@H](COP(=O)(O)OP(=O)(O)OP(=O)(O)O)O[C@H]1n1cnc2c(N)ncnc21 [2′-O-allyl-ATP]
conversion rate to the (+1) product [4]: > 99%
incorporation of reversible terminator by poly(U) polymerase ([5]; 1 mM, 30 minutes, initiator extended by one base): incorporated only a single
conversion rate of initiator (+0) to extension product (+1) ([5]; optimized conditions, 0.5 minutes): > 99%
time required to fully convert the initiator oligonucleotide (+0) to extension product (+1) ([5]; optimized conditions, poly-rU-15-mer 5′-Cy5): less than or equal to 0.5 minutes
controlled incorporation by S. cerevisiae poly(A) polymerase ([1]; nucleoside triphosphate 250 μM to 4000 μM): positive (n+1) incorporation

Compound: [N-]=[N+]=N[C@@H]1[C@H](O)[C@@H](COP(=O)(O)OP(=O)(O)OP(=O)(O)O)O[C@H]1n1cnc2c(N)ncnc21 [2′-Azido-rATP, 2′-azido-2′-deoxyadenosine-5′-triphosphate]
incorporation by S. cerevisiae poly(A) polymerase [1]: incorporates

Compound: Nc1ncnc2c1ncn2[C@@H]1O[C@H](COP(=O)(O)OP(=O)(O)OP(=O)(O)O)[C@@H](O)[C@H]1F [2′-F-rATP, 2′-fluoro-2′-deoxyadenosine-5′-triphosphate]
incorporation by S. cerevisiae poly(A) polymerase [1]: incorporates

Compound: Nc1ncnc2c1ncn2[C@@H]1O[C@H](COP(=O)(O)OP(=O)(O)OP(=O)(O)O)[C@@H](O)[C@H]1O [rATP]
nucleotide concentration needed to produce a response similar to 200 μM of dATP (Human polymerase μ R387K): 5 mM
incorporation by polymerase μ R387K (Human polymerase μ R387K): can incorporate
effect of inorganic pyrophosphatase supplementation on RNA synthesis by poly(U) polymerase ([2]; 30 minutes at 37° C.): greatest enhancement
